Measurements published in PMC8162438, “Cancer cell-selective modulation of mitochondrial respiration and metabolism by potent organogold(III) dithiocarbamates” (Chemical Science, 2020).

Tested on: MRC5
Test: MTT cell viability, human fetal lung fibroblasts MRC5
Assay type: cell-based
Conditions: 72 h
Description: All the gold(III) dithiocarbamate compounds display remarkable cell killing potential in a panel of breast, ovarian, lung and leukemia cancers. Preliminary studies focused on different cancer cell lines (MDA-MB-231, MDA-MB-175, and A2780), an immortalized normal retinal epithelial cell line (RPE-NEO) and human fetal lung fibroblasts (MRC5) (Fig. S111–S129 ^†). These adherent cells were exposed to a serial-diluted concentration of all ten compounds for 72 h. The cells were subsequently treated with 3-(4,5-dimethylthiazol-2-yl)-2,5-diphenyltetrazolium bromide (MTT) solutions, dissolved with DMSO and the absorbance at 570 nm was measured with a plate-reader.
In Vitro Biological Assays
Cell Culture. All cell lines were purchased from ATCC and routinely grown in a humidified incubator at 37 °C with 5-10% CO 2. MDA-MB-231, MDA-MB-175, MRC5, RPE-NEO, H460, and K562 were grown in DMEM supplemented with 10% FBS, 1% amphotericin and 1% penicillin/streptomycin. A2780 cells were grown in RPMI supplemented with 10% FBS, 1% amphotericin, and 1% penicillin/streptomycin, and 4 mM glutamine. All supplements along with PBS and trypsin-EDTA were purchased from Corning Inc. and used as is. […]
Cell Viability of 1a-1e and 2a-2e (Adherent Cell Lines). The cell viability of all 10 complexes were performed in MDA-MB-231, MDA-MB-175, A2780, RPE-NEO and MRC5. The cell viability of compound 2a was also determined in H460. Cells were grown to confluency and trypsin was added to detach and harvest cells. The cells were washed with 2 mL of PBS and suspended in 10 mL of the appropriate media. The cells were centrifuged at 2000 rpm for 5 minutes and the pellet washed with 2 mL of PBS then suspended in 5 mL of the appropriate […]
media. The cells were plated at a density of 2,000 cells/well in a 96-well clear bottom plate and allowed to adhere overnight at 37 °C with 5-10% CO 2. The compounds were prepared as a stock in DMSO and used fresh. The compounds were added at seven concentrations with a 3x serial dilution starting at 50 µM for the highest concentration and incubated at 37 °C for 72 h with 5-10% CO 2. The medium was removed and a solution of MTT (100 µL, prepared by dissolving MTT at 5 mg/mL and diluting by 10x with DMEM) was added to each well and incubated for 4 h at 37 ° C with 5-10% CO 2. The dye was removed from each well and 100 µL of DMSO was added to induce cell lysis. The plates were read using a Genios plate reader (λ = 570 nm). The experiment was performed in triplicate and data are plotted as the mean ± s.e.m. (n = 3). Data for 2a can be found in the main text (Figure 6) and the other complexes can be seen in the supplementary figures (S111 – S129). […]
Cells were grown to confluency and centrifuged at 2000 rpm for 5 minutes to collect the cell pellet. The cells were washed with 5 mL of PBS, suspended in 5 mL of DMEM, and centrifuged again at 2000 rpm for 5 minutes to collect the pellet. The pellet was then washed with 2 mL of PBS and suspended in 5 mL of DMEM. The cells were plated at density of 2,000 cells/well in a 96-well white bottom plate. 2a was prepared as a stock solution […]
10% CO 2. The cells were removed from the incubator and allowed to rest at room temperature for 30 minutes. To each designated well was then added 20 µL of CellTiter-Glo solution and orbitally shaken for 5 minutes and the luminescence (1000 ms integration and 150 ms gain) acquired on a Genios plate reader. The experiment was performed in triplicate. Data are plotted […]
Apoptosis Analysis. […]
A stock of 2a was prepared fresh in DMSO and added to the desired well at a concentration of 1 µM with a final volume of 2.5 mL and incubated for 4 h at 37 °C. A stock of H2O2 was prepared in PBS and the cells treated at a final concentration of 2 mM for 1 hour as a […]

## CC[N+](CC)=C1[S][Au-2]2([S]1)[c]1ccccc1C(=O)c1cccc[n+]12.F[P-](F)(F)(F)(F)F (centres unmarked) [1b]
  IC50: > 50 µM

## F[P-](F)(F)(F)(F)F.O=C1c2cccc[c]2[Au-2]2([S]C(=[N+]3CCCCC3)[S]2)[n+]2ccccc21 (centres unmarked) [1c]
  IC50: > 50 µM

## F[P-](F)(F)(F)(F)F.O=C1c2cccc[c]2[Au-2]2([S]C(=[N+]3CCN(c4ccc(Br)cc4)CC3)[S]2)[n+]2ccccc21 (centres unmarked) [1d]
  IC50: > 50 µM

## COc1ccc(N2CC[N+](=C3[S][Au-2]4([S]3)[c]3ccccc3C(=O)c3cccc[n+]34)CC2)cc1.F[P-](F)(F)(F)(F)F (centres unmarked) [1e]
  IC50: > 50 µM

## CC[N+](CC)=C1[S][Au-2]2([S]1)[c]1ccccc1Cc1cccc[n+]12.F[P-](F)(F)(F)(F)F (centres unmarked) [2b]
  IC50: > 50 µM

## F[P-](F)(F)(F)(F)F.c1cc[c]2c(c1)Cc1cccc[n+]1[Au-2]21[S]C(=[N+]2CCCCC2)[S]1 (centres unmarked) [2c]
  IC50: > 50 µM

## Brc1ccc(N2CC[N+](=C3[S][Au-2]4([S]3)[c]3ccccc3Cc3cccc[n+]34)CC2)cc1.F[P-](F)(F)(F)(F)F (centres unmarked) [2d]
  IC50: > 50 µM

## COc1ccc(N2CC[N+](=C3[S][Au-2]4([S]3)[c]3ccccc3Cc3cccc[n+]34)CC2)cc1.F[P-](F)(F)(F)(F)F (centres unmarked) [2e]
  IC50: > 50 µM
